Active and inactive are the calls of the source. The rule behind the calls is not given here.
What was measured:
CWR22R [1] = assay: Growth inhibition of human 22Rv1 cells incubated for 6 to 7 days by MTS assay; format: functional; details: time 6-7 day
PC-3 = assay: Growth inhibition of human PC-3 cells incubated for 6 to 7 days by MTS assay; format: functional; details: time 6-7 day
LNCaP = assay: Growth inhibition of human LNCaP cells incubated for 6 to 7 days by MTS assay; format: functional; details: time 6-7 day
[2] = Inhibition of LSD2 (unknown origin); parameters: species or system Homo sapiens
[3] = target: T1, Amine oxidase [flavin-containing] A (Homo sapiens, UniProt P21397); assay: Inhibition of MAO-A (unknown origin)
T1 sequence (P21397 whole entry): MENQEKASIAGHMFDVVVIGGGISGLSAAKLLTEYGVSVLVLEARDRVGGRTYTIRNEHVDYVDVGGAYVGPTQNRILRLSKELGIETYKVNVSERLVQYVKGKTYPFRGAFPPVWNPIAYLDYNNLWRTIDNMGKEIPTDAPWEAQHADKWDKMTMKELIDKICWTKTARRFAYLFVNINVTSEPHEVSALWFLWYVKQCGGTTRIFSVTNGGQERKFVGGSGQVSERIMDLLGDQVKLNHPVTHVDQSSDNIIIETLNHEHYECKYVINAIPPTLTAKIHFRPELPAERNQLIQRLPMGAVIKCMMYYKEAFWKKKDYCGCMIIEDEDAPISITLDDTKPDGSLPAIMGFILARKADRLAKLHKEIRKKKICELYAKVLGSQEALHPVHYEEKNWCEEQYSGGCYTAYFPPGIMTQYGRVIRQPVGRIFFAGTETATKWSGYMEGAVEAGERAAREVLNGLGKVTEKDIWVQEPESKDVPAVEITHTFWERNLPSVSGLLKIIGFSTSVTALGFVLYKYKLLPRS

CWR22R [4] = assay: Induction of apoptosis in human 22Rv1 cells at 10 uM incubated for 5 days by Annexin V-FITC/PI staining based flow cytometric analysis (reference value: 8.97 %); format: functional; details: time 5 day
[5] = target: T2, Lysine-specific histone demethylase 1A (Homo sapiens, UniProt O60341); assay: Inhibition of recombinant human LSD1 using Histone H3 as fluorometric substrate incubated for 30 mins by HRP based plate reader assay
[6] = target: T2, Lysine-specific histone demethylase 1A; assay: Inhibition of LSD1 in human LNCaP cells assessed as upregulation of H3K9me2 expression at 10 uM incubated for 24 hrs by Western blotting analysis; format: cell-based
[7] = target: T2, Lysine-specific histone demethylase 1A; assay: Inhibition of LSD1 in human 22Rv1 cells assessed as upregulation of H3K9me2 expression at 10 uM incubated for 24 hrs by Western blotting analysis; format: cell-based
[8] = target: Histone-lysine N-methyltransferase EZH2 (Homo sapiens) (UniProt Q15910); assay: Inhibition of EZH2 in human 22Rv1 cells assessed as downregulation of H3K27me3 expression at 10 uM incubated for 24 hrs by Western blotting analysis; format: cell-based
[9] = target: Histone-lysine N-methyltransferase EZH2 (Homo sapiens) (UniProt Q15910); assay: Inhibition of EZH2 in human LNCaP cells assessed as downregulation of H3K27me3 expression at 10 uM incubated for 24 hrs by Western blotting analysis; format: cell-based

Histone-lysine N-methyltransferase EZH2 (Homo sapiens), sequence (Q15910 whole entry, looked up): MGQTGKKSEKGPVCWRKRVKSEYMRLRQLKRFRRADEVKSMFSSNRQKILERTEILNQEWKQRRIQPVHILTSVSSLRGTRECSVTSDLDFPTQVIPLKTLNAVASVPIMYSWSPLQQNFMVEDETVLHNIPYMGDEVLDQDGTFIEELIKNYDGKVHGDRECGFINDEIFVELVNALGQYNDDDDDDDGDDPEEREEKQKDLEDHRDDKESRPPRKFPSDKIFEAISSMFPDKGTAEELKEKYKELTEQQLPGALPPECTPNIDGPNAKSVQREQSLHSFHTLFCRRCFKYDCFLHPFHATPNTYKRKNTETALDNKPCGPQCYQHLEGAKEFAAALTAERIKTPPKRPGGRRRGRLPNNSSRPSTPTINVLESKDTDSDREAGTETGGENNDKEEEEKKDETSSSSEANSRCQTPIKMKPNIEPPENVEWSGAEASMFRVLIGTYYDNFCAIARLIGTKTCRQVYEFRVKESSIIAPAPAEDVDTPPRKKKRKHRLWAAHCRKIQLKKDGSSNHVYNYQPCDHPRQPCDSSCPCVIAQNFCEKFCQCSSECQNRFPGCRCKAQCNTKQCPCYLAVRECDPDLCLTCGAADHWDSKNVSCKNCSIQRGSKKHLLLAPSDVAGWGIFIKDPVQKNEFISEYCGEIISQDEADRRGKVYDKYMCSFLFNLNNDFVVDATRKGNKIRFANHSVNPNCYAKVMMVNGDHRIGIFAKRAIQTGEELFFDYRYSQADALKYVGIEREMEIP

NC1CCC(N[C@@H]2C[C@H]2c2ccccc2)CC1 (stereo partly specified)
GI50 (CWR22R [1]): > 30 µM
GI50 (PC-3): > 30 µM
GI50 (LNCaP): > 30 µM
IC50 [2]: 24.5 µM
IC50 [3]: 0.51 µM
Activity (CWR22R [4]): 11.56%

CCN(c1cc(-c2ccc([C@@H]3C[C@H]3N(CC(=O)N3CCN(C(=O)OC(C)(C)C)CC3)C(=O)OC(C)(C)C)cc2)cc(C(=O)NCc2c(C)cc(C)[nH]c2=O)c1C)C1CCOCC1 (racemic)
IC50 [5]: > 3 µM
GI50 (CWR22R [1]): 13.1 µM
GI50 (PC-3): > 30 µM
GI50 (LNCaP): 6.49 µM

CCN(c1cc(-c2ccc([C@@H]3C[C@H]3NCC3CCOCC3)cc2)cc(C(=O)NCc2c(C)cc(C)[nH]c2=O)c1C)C1CCOCC1 (racemic)
GI50 (CWR22R [1]): 4.03 µM
GI50 (PC-3): 9.23 µM
GI50 (LNCaP): 2.64 µM
IC50 [2]: 43.7 µM
IC50 [3]: 2.05 µM

CCN(c1cc(-c2ccc([C@@H]3C[C@H]3NC(=O)OC(C)(C)C)cc2)cc(C(=O)NCc2c(C)cc(C)[nH]c2=O)c1C)C1CCOCC1 (racemic)
IC50 [5]: > 3 µM
GI50 (CWR22R [1]): 5.12 µM
GI50 (PC-3): 2.45 µM
GI50 (LNCaP): 3.62 µM

CCN(c1cc(-c2ccc([C@@H]3C[C@H]3N(Cc3ccccc3OC)C(=O)OC(C)(C)C)cc2)cc(C(=O)NCc2c(C)cc(C)[nH]c2=O)c1C)C1CCOCC1 (racemic)
IC50 [5]: > 3 µM
GI50 (CWR22R [1]): 16.7 µM
GI50 (PC-3): > 30 µM
GI50 (LNCaP): 16.9 µM

CCN(c1cc(-c2ccc([C@@H]3C[C@H]3NC(=O)OC(C)(C)C)cc2)cc(C(=O)NCc2c(C)c(Br)c(C)[nH]c2=O)c1C)C1CCOCC1 (racemic)
GI50 (CWR22R [1]): > 30 µM
GI50 (PC-3): 5.08 µM
GI50 (LNCaP): 24.1 µM
inhibition [6]: Active
inhibition [7]: Active
inhibition [8]: inactive
inhibition [9]: inactive

CCN(c1cc(-c2ccc([C@@H]3C[C@H]3NCC3CC3)cc2)cc(C(=O)NCc2c(C)cc(C)[nH]c2=O)c1C)C1CCOCC1 (racemic)
GI50 (CWR22R [1]): 10.4 µM
GI50 (PC-3): > 30 µM
GI50 (LNCaP): 13.8 µM

CCN(c1cc(-c2ccc([C@@H]3C[C@H]3NC(=O)C(C)(C)C)cc2)cc(C(=O)NCc2c(C)cc(C)[nH]c2=O)c1C)C1CCOCC1 (racemic)
GI50 (CWR22R [1]): 13.3 µM
GI50 (PC-3): 7.96 µM
GI50 (LNCaP): 4.42 µM
inhibition [6]: inactive
inhibition [7]: inactive

CCN(c1cc(-c2ccc([C@@H]3C[C@H]3N(CC(=O)N3CCOCC3)C(=O)OC(C)(C)C)cc2)cc(C(=O)NCc2c(C)cc(C)[nH]c2=O)c1C)C1CCOCC1 (racemic)
IC50 [5]: > 3 µM
GI50 (CWR22R [1]): 7.83 µM
GI50 (PC-3): 12.6 µM
GI50 (LNCaP): 5.11 µM

CCN(c1cc(-c2ccc([C@@H]3C[C@H]3NCc3ccccc3)cc2)cc(C(=O)NCc2c(C)cc(C)[nH]c2=O)c1C)C1CCOCC1 (racemic)
GI50 (CWR22R [1]): 3.9 µM
GI50 (PC-3): 9.24 µM
GI50 (LNCaP): 3.41 µM

CCN(c1cc(-c2ccc([C@@H]3C[C@H]3N)cc2)cc(C(=O)NCc2c(C)cc(C)[nH]c2=O)c1C)C1CCOCC1 (racemic)
GI50 (CWR22R [1]): 16.3 µM
GI50 (PC-3): 23.9 µM
GI50 (LNCaP): 6.83 µM

CCN(c1cc(-c2ccc([C@@H]3C[C@H]3NC3CCCCC3)cc2)cc(C(=O)NCc2c(C)cc(C)[nH]c2=O)c1C)C1CCOCC1 (racemic)
GI50 (CWR22R [1]): 4.61 µM
GI50 (PC-3): 12 µM
GI50 (LNCaP): 5.34 µM

CCN(c1cc(-c2cccc([C@@H]3C[C@H]3NCC3CCOCC3)c2)cc(C(=O)NCc2c(C)cc(C)[nH]c2=O)c1C)C1CCOCC1 (racemic)
GI50 (CWR22R [1]): 4.81 µM
GI50 (PC-3): 10.2 µM
GI50 (LNCaP): 5.7 µM

CCN(c1cc(-c2ccc([C@@H]3C[C@H]3NCc3ccccc3F)cc2)cc(C(=O)NCc2c(C)cc(C)[nH]c2=O)c1C)C1CCOCC1 (racemic)
GI50 (CWR22R [1]): 27.4 µM
GI50 (PC-3): > 30 µM
GI50 (LNCaP): 5.39 µM

CCN(c1cc(-c2ccc([C@@H]3C[C@H]3N(C(=O)OC(C)(C)C)C3CCCCC3)cc2)cc(C(=O)NCc2c(C)cc(C)[nH]c2=O)c1C)C1CCOCC1 (racemic)
IC50 [5]: > 3 µM
GI50 (CWR22R [1]): 24.3 µM
GI50 (PC-3): 18.1 µM
GI50 (LNCaP): 5.02 µM

Source: ChEMBL document CHEMBL5584353, “Design, Synthesis, and Biological Evaluation of Potent EZH2/LSD1 Dual Inhibitors for Prostate Cancer” (J Med Chem, 2024)
